Experimental data: PubChem BioAssay AID248 (DTP/NCI, 2004)
Where “and” joins values, the source holds several entries; their conditions need not be identical. Equal entries are not always repeated. Inconclusive results and toxic doses are left out.

Test system: L1210 leukemia ip in BDF1 mice, survival T/C
Test: NCI In Vivo Anticancer Drug Screen. Data for tumor model L1210 Leukemia (intraperitoneal) in B6D2F1 (BDF1) mice
Details: endpoint: mean survival time, higher = longer survival
Summary of the method: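 Survival endpoint. Drug-treated group vs vehicle group, expressed as T divided by C. Tumor passaged by transplantation.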

[1] = dose: 100.0 mg/kg/injection, schedule: Q01DX001 (ip), vehicle: saline
[2] = dose: 200.0 mg/kg/injection, schedule: Q01DX001 (ip), vehicle: saline
[3] = dose: 400.0 mg/kg/injection, schedule: Q01DX001 (ip), vehicle: saline
[4] = dose: 100.0 mg/kg/injection, schedule: Q04DX003 (ip), vehicle: Klucel (hydroxypropylcellulose) (HPC)
[5] = dose: 200.0 mg/kg/injection, schedule: Q04DX003 (ip), vehicle: Klucel (hydroxypropylcellulose) (HPC)
[6] = dose: 400.0 mg/kg/injection, schedule: Q04DX003 (ip), vehicle: Klucel (hydroxypropylcellulose) (HPC)
[7] = dose: 100.0 mg/kg/injection, schedule: Q04DX003 (ip), vehicle: saline
[8] = dose: 200.0 mg/kg/injection, schedule: Q04DX003 (ip), vehicle: saline
[9] = dose: 400.0 mg/kg/injection, schedule: Q04DX003 (ip), vehicle: saline
[10] = dose: 300.0 mg/kg/injection, schedule: Q01DX009 (ip), vehicle: saline
[11] = dose: 100.0 mg/kg/injection, schedule: Q01DX009 (ip), vehicle: Klucel (hydroxypropylcellulose) (HPC)
[12] = dose: 200.0 mg/kg/injection, schedule: Q01DX009 (ip), vehicle: Klucel (hydroxypropylcellulose) (HPC)
[13] = dose: 400.0 mg/kg/injection, schedule: Q01DX009 (ip), vehicle: Klucel (hydroxypropylcellulose) (HPC)
[14] = dose: 100.0 mg/kg/injection, schedule: Q01DX009 (ip), vehicle: saline with Tween-80
[15] = dose: 100.0 mg/kg/injection, schedule: Q04DX003 (ip), vehicle: saline with Tween-80
[16] = dose: 200.0 mg/kg/injection, schedule: Q04DX003 (ip), vehicle: saline with Tween-80
[17] = dose: 400.0 mg/kg/injection, schedule: Q04DX003 (ip), vehicle: saline with Tween-80

SMILES: CCCCOC(=O)Nc1ccc(N)c(NC(=O)OCCCC)n1
- T/C (dose: 100.0 mg/kg/injection, schedule: Q01DX009 (ip), vehicle: gum acacia): 88 % of control
- T/C (dose: 100.0 mg/kg/injection, schedule: Q04DX003 (ip), vehicle: gum acacia): 99 % of control
- T/C (dose: 200.0 mg/kg/injection, schedule: Q01DX009 (ip), vehicle: gum acacia): 93 % of control
- T/C (dose: 200.0 mg/kg/injection, schedule: Q04DX003 (ip), vehicle: gum acacia): 99 % of control
- T/C (dose: 400.0 mg/kg/injection, schedule: Q01DX009 (ip), vehicle: gum acacia): 91 % of control
- T/C (dose: 400.0 mg/kg/injection, schedule: Q04DX003 (ip), vehicle: gum acacia): 97 % of control

SMILES: C=CCSc1ccccc1Cl
- T/C [1]: 100 % of control
- T/C [2]: 103 % of control
- T/C [3]: 103 % of control

SMILES: CCCC(C)CC(=O)O (stereo not given)
- T/C [1]: 102 % of control
- T/C [2]: 102 % of control
- T/C [3]: 98 % of control

SMILES: C[n+]1ccc(/C=C/C(=O)Nc2ccccc2)cc1
- T/C [4]: 104 % of control
- T/C [5]: 108 % of control
- T/C [6]: 98 % of control

SMILES: C[N+]1(CCC[N+]2(C)CC3CCCCC3C2)CCOCC1 (stereo not given)
- T/C [7]: 99 % of control
- T/C [8]: 96 % of control
- T/C [9]: 105 % of control

SMILES: C/C(=N/N(C)C)c1cccc(N)c1
- T/C [1]: 98 % of control
- T/C [2]: 93 % of control
- T/C [3]: 101 % of control

SMILES: S=c1cc(-c2cccs2)ss1
- T/C (dose: 50.0 mg/kg/injection, schedule: Q01DX009 (ip), vehicle: saline): 107 % of control
- T/C (dose: 100.0 mg/kg/injection, schedule: Q01DX009 (ip), vehicle: saline): 96 % of control and 91 % of control
- T/C [7]: 93 % of control
- T/C (dose: 200.0 mg/kg/injection, schedule: Q01DX009 (ip), vehicle: saline): 93 % of control and 91 % of control
- T/C [8]: 105 % of control
- T/C [10]: 95 % of control
- T/C (dose: 400.0 mg/kg/injection, schedule: Q01DX009 (ip), vehicle: saline): 98 % of control
- T/C [9]: 88 % of control

SMILES: CC(C)c1cccc(C(C)C)c1OC(=O)Nc1ccccc1Cl
- T/C [11]: 105 % of control
- T/C [4]: 100 % of control
- T/C [12]: 89 % of control
- T/C [5]: 102 % of control
- T/C [13]: 89 % of control
- T/C [6]: 103 % of control

SMILES: CN(C)c1ccc(/C=N/NC(=O)CNC(=O)c2ccc(Cl)cc2Cl)cc1
- T/C (dose: 50.0 mg/kg/injection, schedule: Q01DX009 (ip), vehicle: saline with Tween-80): 86 % of control
- T/C [14]: 88 % of control

SMILES: CC(C)=NOS(=O)(=O)c1ccc(C)cc1
- T/C (dose: 75.0 mg/kg/injection, schedule: Q01DX009 (ip), vehicle: saline): 103 % of control
- T/C (dose: 75.0 mg/kg/injection, schedule: Q04DX003 (ip), vehicle: saline): 88 % of control
- T/C (dose: 150.0 mg/kg/injection, schedule: Q01DX009 (ip), vehicle: saline): 98 % of control
- T/C (dose: 150.0 mg/kg/injection, schedule: Q04DX003 (ip), vehicle: saline): 92 % of control
- T/C [10]: 101 % of control
- T/C (dose: 300.0 mg/kg/injection, schedule: Q04DX003 (ip), vehicle: saline): 88 % of control

SMILES: CCCCCCCCCCCCCCCCOc1ccc(S(=O)(=O)N(Cc2ccccc2)Cc2ccccc2)cc1[N+](=O)[O-]
- T/C [15]: 86 % of control
- T/C [16]: 95 % of control
- T/C [17]: 90 % of control

SMILES: COC1OC(CN(CCCl)C(C)=O)C2OC(C)(C)OC12 (stereo not given)
- T/C (dose: 50.0 mg/kg/injection, schedule: Q04DX003 (ip), vehicle: saline): 96 % of control
- T/C [7]: 94 % of control
- T/C [8]: 92 % of control
- T/C [9]: 100 % of control

SMILES: CCC(=O)Nc1cccc(OC(=O)N(C(C)C)C(C)C)c1
- T/C [15]: 93 % of control
- T/C [16]: 93 % of control
- T/C [17]: 104 % of control

SMILES: CCNc1nc(C(F)(F)F)nc2[nH]ncc12
- T/C (dose: 100.0 mg/kg/injection, schedule: Q01DX001 (ip), vehicle: acetone): 101 % of control
- T/C [7]: 101 % of control
- T/C (dose: 200.0 mg/kg/injection, schedule: Q01DX001 (ip), vehicle: acetone): 90 % of control
- T/C [8]: 95 % of control
- T/C (dose: 400.0 mg/kg/injection, schedule: Q01DX001 (ip), vehicle: acetone): 90 % of control
- T/C [9]: 97 % of control

SMILES: O=C1C2(c3ccccc3)CCC1(c1ccccc1)C(c1ccccc1)=C2c1ccccc1
- T/C (dose: 100.0 mg/kg/injection, schedule: Q01DX001 (ip), vehicle: saline with Tween-80): 93 % of control

SMILES: CCN(C(C)(C)C(SSSC(c1ccc(Cl)cc1)C(C)(C)N(CC)S(C)(=O)=O)c1ccc(Cl)cc1)S(C)(=O)=O (stereo not given)
- T/C [14]: 91 % of control

SMILES: Cc1cccc[n+]1CCC(N)=O
- T/C (dose: 6.25 mg/kg/injection, schedule: Q01DX009 (ip), vehicle: saline): 97 % of control
- T/C (dose: 12.5 mg/kg/injection, schedule: Q01DX009 (ip), vehicle: saline): 97 % of control
- T/C (dose: 25.0 mg/kg/injection, schedule: Q01DX009 (ip), vehicle: saline): 108 % of control

SMILES: Nc1nc(-c2ccccc2)[nH]c(=O)n1
- T/C [11]: 100 % of control
- T/C [12]: 91 % of control
- T/C [13]: 93 % of control

SMILES: CC(=O)Oc1c2n(c(=O)c3cocc13)Cc1cc3ccccc3nc1-2
- T/C (dose: 100.0 mg/kg/injection, schedule: Q01DX001 (ip), vehicle: Klucel (hydroxypropylcellulose) (HPC)): 92 % of control
- T/C (dose: 200.0 mg/kg/injection, schedule: Q01DX001 (ip), vehicle: Klucel (hydroxypropylcellulose) (HPC)): 94 % of control
- T/C (dose: 400.0 mg/kg/injection, schedule: Q01DX001 (ip), vehicle: Klucel (hydroxypropylcellulose) (HPC)): 90 % of control

SMILES: O=C1CCC(N2C(=O)C3C4c5ccccc5C(c5ccccc54)C3C2=O)C(=O)N1 (stereo not given)
- T/C [15]: 97 % of control
- T/C [7]: 97 % of control
- T/C [16]: 93 % of control
- T/C [8]: 89 % of control

SMILES: O=C1O/C(=C/Br)C=C1Br
- T/C (dose: 3.12 mg/kg/injection, schedule: Q04DX003 (ip), vehicle: saline with Tween-80): 95 % of control
- T/C (dose: 6.25 mg/kg/injection, schedule: Q04DX003 (ip), vehicle: saline with Tween-80): 92 % of control
- T/C (dose: 12.5 mg/kg/injection, schedule: Q04DX003 (ip), vehicle: saline with Tween-80): 92 % of control
- T/C (dose: 12.5 mg/kg/injection, schedule: Q04DX003 (ip), vehicle: saline): 100 % of control
- T/C (dose: 25.0 mg/kg/injection, schedule: Q04DX003 (ip), vehicle: saline): 97 % of control

SMILES: CCCCNCCC[P+](c1ccccc1)(c1ccccc1)c1ccccc1
- T/C (dose: 25.0 mg/kg/injection, schedule: Q04DX002 (ip), vehicle: saline): 115 % of control
- T/C (dose: 50.0 mg/kg/injection, schedule: Q04DX002 (ip), vehicle: saline): 98 % of control
- T/C (dose: 100.0 mg/kg/injection, schedule: Q04DX002 (ip), vehicle: saline): 105 % of control

SMILES: CC[n+]1cccc2cc(NC(=O)c3ccc(NC(=O)c4ccc(C(=O)Nc5ccc6c(ccc[n+]6CC)c5)cc4)cc3)ccc21
- T/C (dose: 0.5 mg/kg/injection, schedule: Q01DX Z (ip), vehicle: carboxymethylcellulose (CMC)): 94 % of control
- T/C (dose: 1.0 mg/kg/injection, schedule: Q01DX Z (ip), vehicle: carboxymethylcellulose (CMC)): 96 % of control
- T/C (dose: 2.5 mg/kg/injection, schedule: Q01DX Z (ip), vehicle: carboxymethylcellulose (CMC)): 120 % of control
- T/C (dose: 5.0 mg/kg/injection, schedule: Q01DX Z (ip), vehicle: carboxymethylcellulose (CMC)): 156 % of control
- T/C (dose: 8.9 mg/kg/injection, schedule: Q01DX Z (ip), vehicle: carboxymethylcellulose (CMC)): 154 % of control
- T/C (dose: 13.3 mg/kg/injection, schedule: Q01DX Z (ip), vehicle: carboxymethylcellulose (CMC)): 164 % of control
- T/C (dose: 20.0 mg/kg/injection, schedule: Q01DX Z (ip), vehicle: carboxymethylcellulose (CMC)): 164 % of control
- T/C (dose: 30.0 mg/kg/injection, schedule: Q01DX Z (ip), vehicle: carboxymethylcellulose (CMC)): 174 % of control
